The text below walks through data of US8173618B2, “Formulations for reducing neuronal degeneration” (University of Massachusetts, priority 2003, dated 2012).

The subject of assay [1] is differentiated SH-SY-5Y cells. Briefly: Intracellular ROS by DCFD fluorescence in differentiated SH-SY-5Y cells. It counts as cell-based, human. The following applies: for ROS: single agent, control cells and cells exposed to Abeta; for increase in ROS: 20 μM Abeta25-35 two hours. As for the experimental part: Cultured cells were used to test individual agents and formulations. In general, SH-SY-5Y human neuroblastoma cells were cultured in DMEM (Cellgro) containing 10% fetal bovine serum in 5% CO2.
For treatments with Abeta, differentiated cultures were transferred to medium without serum and treated for two hours with 20 μM Abeta25-35 (Sigma Chemical Co., St. Louis, Mo.). […] Louis, Mo.). In experiments calling for treatment of cell cultures with N-acetyl cysteine (NAC; NALC), cultures were treated with 10 mM NAC (Sigma Chemical Co., St. Louis, Mo.) after the culture was grown for two hours in serum-free medium.
(§1) Intracellular reactive oxygen species (ROS) were monitored as described in Ekinci et al., 1999 (J. Biol. Chem., 274:30322-30327). Briefly, cells were incubated for 30 minutes with dichloro-fluorescein diacetate (DCFD; acetoxymethyl ester; Molecular Probes, Inc., Eugene, Oreg.), which is used to detect intracellular peroxide levels. Incubation was followed by rinsing of cultures in serum-free medium and immediate capture of images using UV optics. Images were captured under epifluorescent and phase-contrast illumination using a DAGE CCL-72 cooled CCD camera via a Scion LG-3 frame grabber operated by NIH Image (see the Internet at rsb.info.nih.gov/nih-image). Images were then stored as PICT files on a Macintosh Power PC 7100AV for subsequent analysis. At least 100 cells in randomly-selected fields from duplicate cultures derived from multiple experiments were scored for fluorescent intensity using NIH Image analysis software. Representative background areas devoid of cells were similarly analyzed and subtracted from cell values to yield net densitometric values. All fields for each individual assay were illuminated, captured, and processed under identical settings. Corresponding phase-contrast images were obtained. Cell aggregates were excluded from the assays; only individual cells were quantified. Values were exported to Excel for statistical analyses using Student's t test.
For monitoring of intracellular peroxide concentrations as an index of ROS, cultures received 10 μl/ml DFCD (2′7′-dichlorofluorescein diacetate; Kodak) for 20 minutes. Cultures were then visualized under fluorescein UV optics (perikaryon; Ekinci and Shea, 1999, supra).

The test system of assay [2] is differentiated SH-SY-5Y cells. Briefly: Externalized phosphatidylserine (meracyanine fluorescence) as index of apoptosis in SH-SY-5Y cells. Format: cell-based, human. The settings on record: co-treatment with 50 μM ALCAR, 20 μM Abeta. How it is done: Levels of externalized phosphatidylserine (PS) were used as a measure of apoptosis (Rimon et al., 1997, J. Neurosci. Res., 48:563-570). Briefly, cultures were subjected to treatments then rinsed with PBS and incubated with 10 μl/ml merocyanine (Upstate Biotech, Lake Placid, N.Y.), followed by examination under rhodamine optics (Ekinci et al, 1999, J. Biol. Chem., 274:30322-30327).
The question of whether folate deficiency is associated with apoptosis was investigated. […] Overall detachment, a further sign of cell death, was evident by the seventh day in the serum-deprived cultures. The detachment phenomenon precluded longer experiments.
(§2) The effect of ALCAR on differentiated SH-SY-5Y cells treated with Abeta was examined. Cells were cultured in 20 μM Abeta in the presence and absence of ALCAR. Some cultures were pretreated with 50 μM ALCAR for 30 minutes. In these experiments, the ALCAR-containing medium was replaced with medium containing Abeta and no ALCAR then incubated for two hours before being assayed. Cultures were assayed for ROS, apoptosis, and ATP.

Assay [3] deals with differentiated SH-SY-5Y cells. Briefly: ATP levels in Abeta-treated SH-SY-5Y cells. It counts as cell-based, human. As for the experimental part:
FIG. 11 is a bar graph showing the results of experiments examining apoptosis in which differentiated SH-SY-5Y cells cultured in the presence or absence of Abeta, with or without ALCAR for two hours, and assayed for ATP using spectrophotometric methods known in the art.
as §2

Another assay deals with cortical neurons. Briefly: Intracellular ROS by DCFD fluorescence in cortical neurons. Format: cell-based, mice. The settings on record: folate-deficient medium two hours, 0.15 mg/ml vitamin E as alpha-tocopherol. As for the experimental part: as §1, with “Ekinci” left out, “test. […]” for “test.”
The subject of the next assay is normal and ApoE−/− mice. Briefly: TBAR analysis of brain oxidative damage in mice on dietary regimens. It counts as in vivo. The following applies: deficiency in vitamin E alone. The source says: Damage resulting from the generation of intracellular reactive oxygen species can also be quantified using a TBAR assay (Ohkawa et al., Anal. Biochem., 95:351-358, 1979). This method is used to determine cellular lipid hydroperoxides in cultured cells by thiobarbituric acid reaction. Lipid hydroperoxides break down to malondialdehyde and other aldehydes. These react with thiobarbituric acid in a mildly acidic environment, which results in formation of a chromophore. The resulting chromophore is measured by light absorption or fluorescence techniques.
After one month, total brain tissue was harvested and subjected to TBAR analyses as described in Wittaker et al. (1996, supra).
Additional mice received the deficient diet supplemented with DZA (0.4 g/kg total diet weight), SAM (80 mg/kg diet weight) and NAC (1 g/kg diet weight). Total brain tissue was harvested and analyzed for TBARs.

Entries after “also recorded” stand apart in the source; their conditions may differ.

Consider `CC(=O)O[C@H](CC(=O)[O-])C[N+](C)(C)C` [ALCAR, acetyl-L-carnitine], for which, in assay [1] (co-treatment with 50 μM ALCAR, 20 μM Abeta), the “effect of Abeta on ROS generation” value is “reduced the effect of Abeta on ROS generation”. In addition, the “Abeta neurotoxicity (ROS, apoptosis)” value in assay [1] (pretreatment with 50 μM ALCAR for 30 minutes, followed by its removal) is “effective at preventing Abeta neurotoxicity”. Besides, in assay [1] (two hours), the ROS result is given as “reduced ROS”. Moreover, in assay [2], the “effect of Abeta on apoptosis” value is given as “reduced”. For the same compound, in assay [3] (co-treatment and prior treatment with 50 μM ALCAR), the “Abeta-induced reduction in ATP levels” value is recorded as “prevented this reduction in ATP levels”.
Take `Cc1c(C)c2c(c(C)c1O)CC[C@@](C)(CCC[C@H](C)CCC[C@H](C)CCCC(C)C)O2` [vitamin E, alpha-tocopherol]: the “ROS generation during folate deprivation” value in the assay on cortical neurons was “not prevented”. In addition, in assay [1] (additional experiments, vitamin E), the “ROS induction by Abeta” value is reported as “prevented”. Besides, the ROS result in assay [1] (two hours) was “reduced ROS”. Moreover, the “ROS induced by Abeta” value is reported as “efficacy of vitamin E was markedly reduced; also recorded: but not vitamin E, quenched ROS” in assay [1] (vitamin E (0.15 ng/mL) applied 15 minutes after Abeta) and “approximately identical to that of control cells” in assay [1] (vitamin E (0.15 ng/mL) provided simultaneously with Abeta, two hours). For the same compound, the “ROS in brain (TBAR)” value in the assay with normal and ApoE−/− mice (ApoE−/− knockout mice) was “did increase ROS”; with normal and ApoE−/− mice (iron-fed normal mice), “did not increase ROS”.
Consider “Abeta: beta-amyloid fragment of the amyloid precursor protein; Abeta25-35 (Sigma) used at 20 μM (GSNKGAIIGLM; Amyloid-beta protein 42; UniProt P05067 696-706, looked up, fragment)”, for which the “increase in ROS” value in assay [1] (folate-deprived cells) was 144±10%; in assay [1] (in the presence of folate), 34±4%. In assay [3] (20 μM Abeta), the “cellular ATP” value is recorded as “reduced cellular ATP”.
